Results on 39 molecules are retold here after patent US8044206B2, “Nitrogen—containing heterocyclic derivatives having 2,6-disubstituted styryl” (Astellas Pharma Inc., priority 2003, dated 2011).

Counter-ions that a name gives are not always drawn.

In assay [1] the test system is mice with streptozotocin (STZ)-induced diabetic neuropathy. As to the kind of experiment: Analgesic action in mice with streptozotocin (STZ)-induced diabetic neuropathy, tail pinch test. Format: in vivo. Conditions: male ICR mice, Day 15 after STZ, oral 30 mg/kg, 45 minutes prior to measurement, latency after minus before administration. On the procedure:
Representative compounds of Compound (I) of the present invention were assessed for the analgesic action in mice with streptozotocin (STZ)-induced diabetic neuropathy to confirm the effect on neuropathic pain. The assessment was performed by the method of Kamei et al. (Pharmacology Biochemistry & Behavior 39, 541-544, 1991) with some modifications.
Male ICR mice of 4 weeks old were intraperitoneally injected with 200 mg/kg weight of STZ to prepare mice with diabetic neuropathic pain. The analgesic action was assessed by the tail pinch test. […] On Day 14 following the STZ injection, a pretest was carried out to determine the response latency before the administration of a test compound. Only the animals showing not longer than 3 seconds of the response latency in the pretest were used for the test compound assessment on the following day (Day 15 after STZ injection).
In the test compound assessment, the response latency after the administration of a test compound was measured. The test compound was orally administered at a dose of 30 mg/kg, 45 minutes prior to the response latency measurement
The analgesic action of a test compound is expressed as prolongation of latency (in seconds) calculated by the formula: (response latency after administration of a test compound)−(response latency before administration of a test compound).

The subject of another assay is sodium channel. Briefly: [14C] guanidine uptake induced by veratridine in rat cerebral cortex primary neurons (sodium channel inhibitory action). Format: cell-based. Conditions: [14C] guanidine uptake induced by 100 μM veratridine, specific uptake = portion inhibited by 1 mM mexiletine, read-out: Na Channel Inhibition IC50. The procedure: The [^14C] guanidine uptake experiment was performed by the method of Bonisch et al. (British Journal of Pharmacology 108, 436-442, 1993) with some modifications. The [^14C] guanidine was used as a sodium tracer, and the inhibitory activity on uptake of [^14C] guanidine induced by veratridine as a sodium channel activator into rat cerebral cortex primary neurons was measured.
Pregnant rats (Wistar, female, 19 days of gestation) were anesthetized with ether. The animals were bled to death by giving incision through the carotid artery. The fetuses were taken out of the pregnant rats and after ethanol sterilization, the cerebral cortex was removed from the fetuses. The cerebral cortex was digested with papain and dispersed in culture medium, followed by plating on a poly-L-lysine-coated 96-well white plate at a density of 2.5×10^5 cells/well. Incubation was performed in a CO2 incubator (37° C., 5% CO2) for 2 days.
After each well was washed once with an assay buffer (135 mM choline Cl, 5 mM KCl, 1 mM MgSO4, 5.5 mM glucose, 1 mg/mL BSA, 10 mM Hepes-Tris, pH 7.4), a fresh assay buffer was added to the well, followed by incubation at 25° C. for 10 minutes. Then, a reaction solution (a test compound, [^14C] guanidine and 100 μM, veratridine) was replaced for the buffer, followed by incubation at 25° C. for 15 minutes. The reaction was terminated by washing 3 times with a cold wash buffer (135 mM NaCl, 5 mM KCl, 1 mM MgSO4, 10 mM Hepes-Tris, pH 7.4). To each well, 17 μl of 0.1N NaOH was added. After agitation, 100 μl of scintillator was added to the well and further agitation was continued. The radioactivity was quantified by a liquid scintillation counter. In each experiment, the sodium channel-specific uptake of the whole uptake was designated as portion that was inhibited by 1 mM mexiletine. The action of the test compound on sodium channel is expressed as 50% inhibition concentration (IC50) based on the specific uptake.

The IC50 is the concentration that inhibits the measured activity by half.

Turning to `Cc1cc(Oc2ccccc2)cc(C)c1/C=C/C1CCN(C(=O)CN2CCOCC2)CC1` [Example 99, 4-(2-{4-[(E)-2-(2,6-dimethyl-4-phenoxyphenyl)vinyl]piperidin-1-yl}-2-oxoethyl) morpholine], the “Anti-STZ-induced pain after oral administration: Latency prolongation” value (“Anti-STZ-induced pain” for short) in assay [1] worked out at 1.7 s.
Turning to `Cc1cccc(C)c1/C=C/C1CCN(C(=O)CN2CCN(C3CCCCC3)CC2)CC1` [Example 176], the IC50 with sodium channel turned out to be 2.5 µM.
`Cc1cccc(C)c1/C=C/C1CCCN(C(=O)CN2CCOCC2)C1` (stereo not drawn) [Example 101]: in assay [1], the “Anti-STZ-induced pain” value turned out to be 2.0 s.
`Cc1cccc(C)c1/C=C/C1CCN(C(=O)CN(C)CCN2CCOCC2)CC1` [Example 213]: the IC50 in the assay on sodium channel is 3.7 µM.
With `Cc1cccc(C)c1/C=C/C1CCN(C(=O)CNCCO)CC1` [Example 135, 2-[(2-{4-[(E)-2-(2,6-dimethylphenyl)vinyl]piperidin-1-yl}-2-oxoethyl)amino]ethanol], in assay [1], the “Anti-STZ-induced pain” value came to 2.4 s.
For `Cc1cccc(C)c1/C=C/C1CCN(C(=O)CN2CCC(N3CCCC3)CC2)CC1` [Example 170, 4-[(E)-2-(2,6-dimethylphenyl)vinyl]-1-[(4-pyrolidin-1-ylpiperidin-1-yl)acetyl]piperidine], the “Anti-STZ-induced pain” value in assay [1] was 1.7 s.
As for `Cc1cccc(C)c1/C=C/C1CCN(C(=O)CNC2COC2)CC1` [Example 126, N-(2-{4-[(E)-2-(2,6-dimethylphenyl)vinyl]piperidin-1-yl}-2-oxoethyl)oxetane-3-amine], in assay [1], the “Anti-STZ-induced pain” value was found to be 1.5 s.
In the case of `Cc1cccc(C)c1/C=C/C1CCN(Cc2ccccc2)CC1` [Example 73, 1-benzyl-4-[(E)-2-(2,6-dimethylphenyl)vinyl]piperidine], the IC50 in the assay with sodium channel amounted to 1.9 µM.
With `Cc1cccc(C)c1/C=C/C1CCN(C(=O)[C@@H]2CCCN2)CC1` [Example 114, 4-[(E)-2-(2,6-dimethylphenyl)vinyl]-1-[(2S)-pyrolidin-2-ylcarbonyl]piperidine], the “Anti-STZ-induced pain” value in assay [1] was 2.4 s.
Same read-out and setting: the result for `Cc1cccc(C)c1/C=C/C1CCN(C(=O)CN2CCC(N)CC2)CC1` [Example 203, 1-(2-{4-[(E)-2-(2,6-dimethylphenyl)vinyl]piperidin-1-yl}-2-oxoethyl)piperidine-4-amine] reads 1.7 s; that for `Cc1cccc(C)c1/C=C/C1CCN(C(=O)C(C)(C)N)CC1` [Example 108, (2-{4-[(E)-2-(2,6-dimethylphenyl)vinyl]piperidin-1-yl}-1,1-dimethyl-2-oxoethyl)amine monohydrochloride], 1.8 s.
As for `COc1cc(C)c(/C=C/C2CCNCC2)c(C)c1` [Example 54], in the assay with sodium channel, the IC50 was found to be 19 µM.
Turning to `Cc1cccc(C)c1/C=C/C1CCN(C(=O)CN2CC=CC2)CC1` [Example 145], in the assay on sodium channel, the IC50 worked out at 6 µM.
As for `Cc1cccc(C)c1/C=C/[C@H]1CCNC[C@@H]1C` [Example 68, 4-[(E)-2-(2,6-dimethylphenyl)vinyl]-3-methylpiperidine hydrochloride], in the assay with sodium channel, the concentration for half-maximal inhibition (IC50) was determined as 8.7 µM.
The same measure, in the same setting: to `Cc1cccc(C)c1C=CC1CCN(C(=O)C2COCCN2)CC1` (stereo not drawn) [Example 122] belongs 9.4 µM.
On to `Cc1cc(C#N)cc(C)c1/C=C/C1CCNCC1` [Example 49, 3,5-dimethyl-4-[(E)-2-piperidin-4-ylvinyl]benzonitrile], for which the “Anti-STZ-induced pain” value in assay [1] turned out to be 2.2 s.
As to `Cc1cc(Br)cc(C)c1/C=C\C1CCNCC1` [Example 56], the IC50 with sodium channel was 6.7 µM.
For `Cc1cccc(C)c1/C=C/C1CCN(C(=O)C2(N)CCC2)CC1` [Example 110, [1-({4-[(E)-2-(2,6-dimethylphenyl)vinyl]piperidin-1-yl}carbonyl)cyclobutyl]amine], the “Anti-STZ-induced pain” value in assay [1] stood at 2.1 s.
On the same count and under the same terms, the result for `Cc1cccc(C)c1/C=C/C1CCN(C(=O)CN2CCCOCC2)CC1` [Example 189, 4-(2-{4-[(E)-2-(2,6-dimethylphenyl)vinyl]piperidin-1-yl}-2-oxoethyl)-1,4-oxazepane] reads 2.4 s; that for `CC(=O)NCCNCC(=O)N1CCC(/C=C/c2c(C)cccc2C)CC1` [Example 134, N-{2-[(2-[4-[(E)-2-(2,6-dimethylphenyl)vinyl]piperidin-1-yl]-2-oxoethyl)amino]ethyl}acetamide], 1.7 s.
On to `Cc1cccc(C)c1/C=C/C1CCN(C(=O)CN2CCSCC2)CC1` [Example 185], for which the IC50 with sodium channel turned out to be 6.7 µM.
As for `Cc1cccc(C)c1/C=C/C1CCN(C(=O)CN2CCN(C(=O)c3cccnc3)CC2)CC1` [Example 105, 1-(2-{4-[(E)-2-(2,6-dimethylphenyl)vinyl]piperidin-1-yl}-2-oxoethyl)-4-(pyridin-3-ylcarbonyl)piperazine], the “Anti-STZ-induced pain” value in assay [1] came to 1.8 s.
The same measure, in the same setting: the result for `Cc1cccc(C)c1/C=C/C1CCN(C(=O)CN2CCOC(CO)C2)CC1` (stereo not drawn) [Example 180, [4-(2-{4-[(E)-2-(2,6-dimethylphenyl)vinyl]piperidin-1-yl}-2-oxoethyl)morpholine-2-yl]methanol] reads 2.3 s; that for `Cc1cccc(C)c1/C=C/C1CCN(C(=O)CN2C[C@H]3C[C@@H]2CN3)CC1` [Example 205, (1R,4R)-2-(2-{4-[(E)-2-(2,6-dimethylphenyl)vinyl]piperidin-1-yl}-2-oxoethyl)-2,5-diazabicyclo[2.2.1]heptane], 1.6 s.
Consider `Cc1cccc(C)c1C=CC1CCN(C(=O)CN2CCCC3CCCCC32)CC1` (stereo not drawn) [Example 192], for which the IC50 with sodium channel stood at 1.1 µM.
With `Cc1cccc(C)c1/C=C/C1CCN(C(=O)CN2CCNCC2)CC1` [Example 204, 1-(2-{4-[(E)-2-(2,6-dimethylphenyl)vinyl]piperidin-1-yl}-2-oxoethyl)piperazine], the “Anti-STZ-induced pain” value in assay [1] was found to be 2.4 s.
Same read-out and setting: the result for `Cc1cccc(C)c1/C=C/C1CCN(C(=O)c2nc(N)n[nH]2)CC1` [Example 87, 5-({4-[(E)-2-(2,6-dimethylphenyl)vinyl]piperidin-1-yl}carbonyl)-1H-1,2,4-triazol-3-amine] reads 1.6 s.
`CCc1cccc(CC)c1/C=C/C1CCNCC1` [Example 40]: the IC50 with sodium channel stood at 8.4 µM.
As to `O=C(CN1CCOCC1)N1CCC(/C=C/c2c(Cl)cccc2Cl)CC1` [Example 98], in the assay on sodium channel, the IC50 came to 12 µM.
On the same count and under the same terms, to `COCCN1CCC(/C=C/c2c(C)cccc2C)CC1` [Example 75] belongs 3.5 µM; to `Cc1cccc(C)c1C=CC1CCN(C(=O)CNCC2CCCO2)CC1` (stereo not drawn) [Example 130], 3.4 µM.
Still for that read-out and setting: the result for `Cc1cccc(C)c1C=CC1CCN(C(=O)CN(C)CC2CCCO2)CC1` (stereo not drawn) [Example 211] reads 3 µM; that for `Cc1cccc(C)c1C=CC1CCN(C(=O)CN2CC(C)CC(C)C2)CC1` (stereo not drawn) [Example 153, 1-(2-{4-(E)-2-(2,6-dimethylphenyl)vinyl]piperidin-1-yl}-2-oxoethyl)-3,5-dimethyl piperidine], 2.4 µM; that for `Cc1cccc(C)c1/C=C/CC1CCN(C(=O)CN2CCOCC2)CC1` [Example 103], 5 µM.
Same read-out and setting: the result for `Cc1cccc(C)c1/C=C/c1ccncc1` [Example 25-2] reads 29 µM; that for `Cc1cccc(C)c1/C=C/C1CCN(C(=O)CNCCN)CC1` [Example 198], 8.5 µM.
For the molecule `CCCCN(CCCC)C(=O)c1cc(C)c(/C=C/C2CCNCC2)c(C)c1` [Example 51], the IC50 with sodium channel amounted to 15 µM.
The same measure, in the same setting: to `Cc1cccc(C)c1/C=C/C1CCN(C(=O)CNC2CCOCC2)CC1` [Example 129, (2-{4-[(E)-2-(2,6-dimethylphenyl)vinyl]piperidin-1-yl}-2-oxoethyl)tetrahydro-2H-pyran-4-ylamine] belongs 4.2 µM; to `Cc1cccc(C)c1/C=C/C1CCN(C(=O)CN2CCC(Cc3ccccc3)CC2)CC1` [Example 165], 2.3 µM.
